What is called EC90 is the point of the concentration-response curve where the effect stands at 90%. Broadly, the Km is the concentration of substrate that gives half-maximal velocity. By kcat is commonly meant the maximal rate divided by the concentration of active sites. In general, EC50 refers to the concentration giving half of the maximal effect. Higher therefore signals weaker potency.

The results in this text go back to article PMC3135787 (Antiviral research, 2011).

In data set [1] the test system is ET replicon with NS5B C316Y. The data set is described as follows: microbe, parasite or virus in culture. The data set is classed as cell-based, HCV.
Data set [2] concerns the target T1, recombinant human ADAL1 (Homo sapiens, UniProt Q6DHV7).
T1 sequence (Q6DHV7 1-355): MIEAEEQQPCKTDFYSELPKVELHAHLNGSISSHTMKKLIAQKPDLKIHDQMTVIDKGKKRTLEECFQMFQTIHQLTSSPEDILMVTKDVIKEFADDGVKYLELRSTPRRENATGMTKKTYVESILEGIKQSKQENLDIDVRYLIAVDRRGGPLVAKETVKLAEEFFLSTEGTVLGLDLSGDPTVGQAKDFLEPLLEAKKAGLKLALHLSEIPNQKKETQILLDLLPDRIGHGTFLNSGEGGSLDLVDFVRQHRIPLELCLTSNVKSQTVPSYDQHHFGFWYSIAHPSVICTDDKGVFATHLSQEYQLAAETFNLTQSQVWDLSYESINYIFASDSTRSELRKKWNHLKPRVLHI
The data set is described as follows: ADAL1-mediated demethylation assay. Format: biochemical. As to conditions: ADAL1, pH 6.7, 37°C.

For data set [3], the system named is genotype 1a H77 subgenomic replicon. Briefly: HCV replicon assay, genotype 1a H77. Format: cell-based. As to conditions: GT1a_H77 replicon, four days.
Data set [4] deals with primary human hepatocytes. Briefly: Metabolism of [3H]-PSI-353661 in primary human hepatocytes. Format: in vitro ADME. As to conditions: continuous exposure to 5 μM [3H]-PSI-353661.
The test system of data set [5] is genotype 1b replicon (Con1 strain). Briefly: HCV replicon assay, genotype 1b Con1. The data set is classed as cell-based. As to conditions: GT1b_Con1 replicon, four days (96 h).
Data set [6] deals with genotype 2a J6/JFH-1 subgenomic replicon. Briefly: HCV replicon assay, genotype 2a J6/JFH-1. The data set is classed as cell-based. As to conditions: GT2a_JFH-1 replicon, four days. (In antiviral work, replicon cells carry a viral genome segment that copies itself.)
For data set [7], the target named is T2, Human guanylate kinase (hGUK1) (Homo sapiens, UniProt Q16774).
T2 sequence (Q16774 1-197): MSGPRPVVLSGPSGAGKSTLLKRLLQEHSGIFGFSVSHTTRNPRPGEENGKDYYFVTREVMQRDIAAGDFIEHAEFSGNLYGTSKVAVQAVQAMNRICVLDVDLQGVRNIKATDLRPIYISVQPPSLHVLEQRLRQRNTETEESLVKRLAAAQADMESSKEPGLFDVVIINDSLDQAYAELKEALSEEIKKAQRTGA
The data set is described as follows: hGUK1-mediated phosphorylation, coupled spectrophotometric assay. The data set is classed as biochemical.

Data set [8] concerns ET replicon with NS5B S96T/N142T. Briefly: microbe, parasite or virus in culture. The data set is classed as cell-based, HCV.
Data set [9] concerns Clone A wild type replicon. The data set is described as follows: Cross resistance: Clone A wild type replicon, RT-PCR. The data set is classed as cell-based, HCV. As to conditions: Hepatitis C virus, read-out: EC90 WT replicon.
Data set [10] concerns Clone A replicon with NS5B S282T. Briefly: microbe, parasite or virus in culture. Format: cell-based, HCV.
The mark [11] stands for this setting: Hepatitis C virus, read-out: EC90 Mutant replicon.

For `CNC(=O)c1c(-c2ccc(F)cc2)oc2cc(N(CCO)S(C)(=O)=O)c(C3CC3)cc12` [HCV-796, 5-cyclopropyl-2-(4-fluoro-phenyl)-6-[(2-hydroxy-ethyl)-methanesulfonyl-amino]-benzofuran-3-carboxylic acid methylamide, reference compound], the EC90 fold change in data set [1] (C316Y mutant EC90 normalised to wild-type) was determined as 73.9. In data set [1] (setting [11]), the EC90 was 1.92 ± 0.77 µM.

As for `CNc1ncnc2c1ncn2[C@@H]1O[C@H](COP(=O)(O)O)[C@@H](O)[C@H]1O` [N^6-meAMP, N^6-methyl AMP, reference compound], in data set [2], the Km turned out to be 12.5 ± 1.6 µM and the turnover number (kcat) stood at 1.58 ± 0.12 s⁻¹.

For `COc1nc(N)nc2c1ncn2[C@@H]1O[C@H](COP(=O)(O)O)[C@@H](O)[C@H]1O` [O^6-meGMP, O^6-methyl GMP, reference compound], in [2], the Michaelis constant (Km) worked out at 5.2 ± 0.9 µM and the kcat amounted to 2.33 ± 0.07 s⁻¹.

As to `C[C@@]1(F)[C@H](O)[C@@H](CO)O[C@H]1n1cnc2c(=O)[nH]c(N)nc21` [PSI-6567, 2′-F-2′-C-methylguanosine], the concentration giving a half-maximal response (EC50) in data set [3] was found to be 19 ± 8.6 µM; in data set [5], 22 ± 7.7 µM; in data set [6], 38.3 ± 18.6 µM. Also, the concentration for an effect of 90% (EC90) in data set [3] was determined as 53.4 ± 12.8 µM; in data set [5], 69.2 ± 19.3 µM; in data set [6], 60 ± 14.8 µM. Further, in [4], the “time to maximum intracellular concentration” value (shortened to “time”) lay in the range of 0.5 to 1 h.

Consider `COc1nc(N)nc2c1ncn2[C@@H]1O[C@H](CO)[C@@H](O)[C@@]1(C)F` [PSI-352878, (2R,3R,4R,5R)-5-(2-amino-6-methoxy-purin-9-yl)-4-fluoro-2-hydroxymethyl-4-methyl-tetrahydro-furan-3-ol], for which the “time” value in [4] was in the range of 0.5 to 1 h.

In the case of `COc1nc(N)nc2c1ncn2[C@@H]1O[C@H](COP(=O)(O)N[C@@H](C)C(=O)O)[C@@H](O)[C@@]1(C)F` [PSI-353131, (S)-2-{[(2R,3R,4R,5R)-5-(2-amino-6-methoxy-purin-9-yl)-4-fluoro-3-hydroxy-4-methyl-tetrahydro-furan-2-ylmethoxy]-hydroxy-phosphorylamino}-propionic acid], in [2], the Michaelis-Menten constant (Km) entry is given as “No activity”, the kcat entry was “No activity” and the “kcat / Km” value is given as “No activity”. For the same molecule, the “time” value in [4] turned out to be 0.25 h.

For the molecule `C[C@@]1(F)[C@H](O)[C@@H](COP(=O)(O)O)O[C@H]1n1cnc2c(=O)[nH]c(N)nc21` [PSI-353222, 2′-deoxy-2-α-fluoro-2-β-C-methylguanosine-5′-monophosphate], the “time” value in [4] lay within 1 to 2 h. In [7] (hGUK1), the “Km compared to GMP (fold weaker)” value came to 3.4 fold and the “kcat compared to GMP (fold lower)” value is listed as “approximately 240 fold”. In [7] (hGUK1, 37°C), the Michaelis constant (Km) turned out to be 64.9 ± 1.6 µM and the catalytic constant (kcat) came to 0.31 ± 0.03 s⁻¹.

In the case of `COc1nc(N)nc2c1ncn2[C@@H]1O[C@H](COP(=O)(O)O)[C@@H](O)[C@@]1(C)F` [PSI-353224, 2-amino-6-methoxypurine 2′-deoxy-2′-α-fluoro-2-β-C-methylribose-5′-monophosphate], in data set [2], the Km amounted to 9 ± 2.1 µM and the turnover number (kcat) came out at 5.84 ± 0.40 s⁻¹. Besides, the “time” value in [4] lay in the range of 0.5 to 1 h. In data set [7] (hGUK1, 500 μM, the highest concentration tested), the activity as substrate entry was “No activity”. In [7] (hGUK1, 37°C), the Km result is on record as “No activity”, the turnover number (kcat) result is given as “No activity” and the “kcat / Km” value is “No activity”.

Consider `[N-]=[N+]=N[C@]1(CO)O[C@@H](n2ccc(N)nc2=O)[C@H](O)[C@@H]1O` [R1479, 4′-azidocytidine], for which the 90% effect concentration (EC90) was determined as 74.1 ± 12.1 µM in data set [8] (setting [11]), 22.4 ± 4.58 µM in data set [9] and 12.5 ± 3.78 µM in data set [10] (setting [11]). The EC90 fold change in data set [8] (S96T/N142T mutant EC90 normalised to wild-type) is listed as 4.7; in data set [10] (S282T mutant EC90 normalised to wild-type), 0.6.
